Drawing on PubChem BioAssay AID212 (DTP/NCI, 2004), this text covers T/C for 13 compounds.

The assay deals with BDF1 mice, colon carcinoma 38 sc, T/C %. Description: NCI In Vivo Anticancer Drug Screen. Data for tumor model Colon Carcinoma 38 (subcutaneous) in B6D2F1 (BDF1) mice. As to conditions: endpoint: median tumor weight (est.), higher = larger tumour. Put shortly:
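Compound antitumor activity was assessed in mice carrying transplantable tumors. Survival or tumor size was recorded, and each value is the treated-group measurement divided by that of the vehicle-treated control group.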

The mark [1] stands for this setting: dose: 100.0 mg/kg/injection, schedule: Q07DX003 (ip), vehicle: saline.
The mark [2] stands for this setting: dose: 12.5 mg/kg/injection, schedule: Q07DX002 (ip), vehicle: saline with Tween-80.
Where [3] appears, read: dose: 25.0 mg/kg/injection, schedule: Q07DX002 (ip), vehicle: saline with Tween-80.
Where [4] appears, read: dose: 50.0 mg/kg/injection, schedule: Q07DX002 (ip), vehicle: saline with Tween-80.
The mark [5] stands for this setting: dose: 100.0 mg/kg/injection, schedule: Q07DX002 (ip), vehicle: saline with Tween-80.
Where [6] appears, read: dose: 6.25 mg/kg/injection, schedule: Q07DX002 (ip), vehicle: saline with Tween-80.

Structures are written as SMILES. Values joined by “and” are separate entries in the source; they are usually repeats but may differ in a detail not shown here. Identical values can stand only once. Records with an inconclusive call do not appear.

On to `CC[C@](O)(C(=O)O)c1cc2n(c(=O)c1CO)Cc1cc3ccccc3nc1-2`, for which the T/C runs as follows: (dose: 6.25 mg/kg/injection, schedule: Q07DX003 (ip), vehicle: saline) 48 % of control and 62 % of control; (dose: 12.5 mg/kg/injection, schedule: Q07DX003 (ip), vehicle: saline) 38 % of control and 60 % of control; (dose: 25.0 mg/kg/injection, schedule: Q07DX003 (ip), vehicle: saline) 34 % of control and 41 % of control and 54 % of control; (dose: 50.0 mg/kg/injection, schedule: Q07DX003 (ip), vehicle: saline) 23 % of control and 26 % of control and 45 % of control; under setting [1], 9 % of control.

Take `COC1=C(N)C(=O)c2nc(-c3nc(C(=O)O)c(C)c(-c4ccc(OC)c(OC)c4O)c3N)ccc2C1=O`: the T/C (dose: 0.05 mg/kg/injection, schedule: Q07DX003 (ip), vehicle: Klucel (hydroxypropylcellulose) (HPC)) was 110 % of control; the T/C (dose: 0.1 mg/kg/injection, schedule: Q07DX003 (ip), vehicle: Klucel (hydroxypropylcellulose) (HPC)) was 93 % of control; the T/C (dose: 0.2 mg/kg/injection, schedule: Q07DX003 (ip), vehicle: Klucel (hydroxypropylcellulose) (HPC)) is 111 % of control; the T/C (dose: 0.4 mg/kg/injection, schedule: Q07DX003 (ip), vehicle: Klucel (hydroxypropylcellulose) (HPC)) was 83 % of control.

Consider `C=C1C(C)C2C(Cc3ccccc3)NC(=O)C23C(OC(C)=O)/C=C/C(C)(O)CC(C)C/C=C/C3C1O` (centres undefined), for which the T/C was 86 % of control (dose: 0.75 mg/kg/injection, schedule: Q07DX002 (ip), vehicle: Klucel (hydroxypropylcellulose) (HPC)); 115 % of control (dose: 1.5 mg/kg/injection, schedule: Q07DX002 (ip), vehicle: Klucel (hydroxypropylcellulose) (HPC)); 77 % of control (dose: 3.0 mg/kg/injection, schedule: Q07DX002 (ip), vehicle: Klucel (hydroxypropylcellulose) (HPC)); 100 % of control (dose: 6.0 mg/kg/injection, schedule: Q07DX002 (ip), vehicle: Klucel (hydroxypropylcellulose) (HPC)); 95 % of control (dose: 12.0 mg/kg/injection, schedule: Q07DX002 (ip), vehicle: Klucel (hydroxypropylcellulose) (HPC)); 90 % of control (dose: 24.0 mg/kg/injection, schedule: Q07DX002 (ip), vehicle: Klucel (hydroxypropylcellulose) (HPC)).

Consider `CC(=O)Nc1ccc(S(=O)(=O)CO)cc1`, for which the T/C reads like this: under setting [2], 116 % of control and 97 % of control; under setting [3], 84 % of control and 107 % of control; under setting [4], 89 % of control; under setting [5], 88 % of control and 91 % of control; (dose: 200.0 mg/kg/injection, schedule: Q07DX002 (ip), vehicle: saline with Tween-80) 89 % of control and 97 % of control.

Consider `C=C(C)C(=O)OC1C/C(CO)=C\C(O)C/C(C)=C/C2OC(=O)C(=C)C21` (centres undefined), for which the T/C by setting is: (dose: 2.5 mg/kg/injection, schedule: Q07DX002 (ip), vehicle: saline + alcohol) 105 % of control; (dose: 5.0 mg/kg/injection, schedule: Q07DX002 (ip), vehicle: saline + alcohol) 117 % of control; (dose: 20.0 mg/kg/injection, schedule: Q07DX002 (ip), vehicle: saline + alcohol) 120 % of control; (dose: 40.0 mg/kg/injection, schedule: Q07DX002 (ip), vehicle: saline + alcohol) 119 % of control.

For `NCCCC(N)(C(=O)O)C(F)F` (centres undefined), the T/C is 124 % of control (dose: 100.0 mg/kg/injection, schedule: Q07DX002 (ip), vehicle: distilled water + alcohol); 107 % of control (dose: 200.0 mg/kg/injection, schedule: Q07DX002 (ip), vehicle: distilled water + alcohol); 113 % of control and 124 % of control (dose: 400.0 mg/kg/injection, schedule: Q07DX002 (ip), vehicle: distilled water + alcohol); 124 % of control (dose: 800.0 mg/kg/injection, schedule: Q07DX002 (ip), vehicle: distilled water + alcohol); 123 % of control and 100 % of control (dose: 1600.0 mg/kg/injection, schedule: Q07DX002 (ip), vehicle: distilled water + alcohol).

`c1ccc2c(c1)[As]=c1ccccc1=[As]2` (centres undefined): the T/C (dose: 3.0 mg/kg/injection, schedule: Q07DX002 (ip), vehicle: saline) was 124 % of control.

With `CCCCCCCCCCCCN1C(C)=CS/C1=C\C=C\c1scc(C)[n+]1CCCCCCCCCCCC`, the T/C by setting is: (dose: 0.78 mg/kg/injection, schedule: Q07DX002 (ip), vehicle: saline with Tween-80) 124 % of control; (dose: 1.56 mg/kg/injection, schedule: Q07DX002 (ip), vehicle: saline with Tween-80) 98 % of control; (dose: 3.12 mg/kg/injection, schedule: Q07DX002 (ip), vehicle: saline with Tween-80) 79 % of control; under setting [6], 88 % of control; (dose: 12.0 mg/kg/injection, schedule: Q07DX002 (ip), vehicle: saline with Tween-80) 101 % of control; under setting [2], 120 % of control.

In the case of `CC1=C[S+](c2ccccc2)c2cccc3cc4ccccc4c1c23` (centres undefined), the T/C runs as follows: (dose: 0.5 mg/kg/injection, schedule: Q07DX002 (ip), vehicle: saline with Tween-80) 109 % of control; (dose: 1.0 mg/kg/injection, schedule: Q07DX002 (ip), vehicle: saline with Tween-80) 162 % of control; (dose: 2.0 mg/kg/injection, schedule: Q07DX002 (ip), vehicle: saline with Tween-80) 151 % of control; (dose: 4.0 mg/kg/injection, schedule: Q07DX002 (ip), vehicle: saline with Tween-80) 114 % of control.

Consider `O=Cc1ccc(C=O)c(Cl)c1`, for which the T/C was 107 % of control (dose: 50.0 mg/kg/injection, schedule: Q07DX002 (ip), vehicle: Klucel (hydroxypropylcellulose) (HPC)); 79 % of control (dose: 100.0 mg/kg/injection, schedule: Q07DX002 (ip), vehicle: Klucel (hydroxypropylcellulose) (HPC)); 95 % of control (dose: 200.0 mg/kg/injection, schedule: Q07DX002 (ip), vehicle: Klucel (hydroxypropylcellulose) (HPC)); 75 % of control (dose: 400.0 mg/kg/injection, schedule: Q07DX002 (ip), vehicle: Klucel (hydroxypropylcellulose) (HPC)).

On to `NNC(=S)N/N=C/c1ccccn1`, for which the T/C was 84 % of control (dose: 3.12 mg/kg/injection, schedule: Q07DX002 (ip), vehicle: suspension in saline); 49 % of control (dose: 6.25 mg/kg/injection, schedule: Q07DX002 (ip), vehicle: suspension in saline); 77 % of control (dose: 12.5 mg/kg/injection, schedule: Q07DX002 (ip), vehicle: suspension in saline); 75 % of control (dose: 25.0 mg/kg/injection, schedule: Q07DX002 (ip), vehicle: suspension in saline); 64 % of control (dose: 50.0 mg/kg/injection, schedule: Q07DX002 (ip), vehicle: suspension in saline).

Regarding `CC1(C)OC2C(COC(=O)c3ccc([N+](=O)[O-])cc3)OC(NC(=O)N(CCCl)N=O)C2O1` (centres undefined), the T/C under setting [6] was 62 % of control; the T/C under setting [2] was 112 % of control and 123 % of control; the T/C (dose: 12.5 mg/kg/injection, schedule: Q07DX003 (ip), vehicle: saline with Tween-80) was 106 % of control; the T/C under setting [3] is 68 % of control; the T/C (dose: 25.0 mg/kg/injection, schedule: Q07DX003 (ip), vehicle: saline with Tween-80) is 88 % of control; the T/C under setting [4] is 61 % of control and 82 % of control. Also, the T/C runs as follows: (dose: 50.0 mg/kg/injection, schedule: Q07DX003 (ip), vehicle: saline with Tween-80) 68 % of control; under setting [5], 48 % of control and 67 % of control; (dose: 100.0 mg/kg/injection, schedule: Q07DX003 (ip), vehicle: saline with Tween-80) 40 % of control; (dose: 200.0 mg/kg/injection, schedule: Q07DX003 (ip), vehicle: saline with Tween-80) 4 % of control.

For `C[C@@H](CN1CC(=O)NC(=O)C1)N1CC(=O)NC(=O)C1`, the T/C was 87 % of control (dose: 25.0 mg/kg/injection, schedule: Q07DX002 (ip), vehicle: saline); 95 % of control (dose: 50.0 mg/kg/injection, schedule: Q07DX002 (ip), vehicle: saline); 97 % of control (dose: 100.0 mg/kg/injection, schedule: Q07DX002 (ip), vehicle: saline); 71 % of control under setting [1]; 110 % of control (dose: 200.0 mg/kg/injection, schedule: Q07DX002 (ip), vehicle: saline); 71 % of control (dose: 200.0 mg/kg/injection, schedule: Q07DX003 (ip), vehicle: saline). The T/C reads like this: (dose: 400.0 mg/kg/injection, schedule: Q07DX002 (ip), vehicle: saline) 93 % of control; (dose: 400.0 mg/kg/injection, schedule: Q07DX003 (ip), vehicle: saline) 71 % of control; (dose: 800.0 mg/kg/injection, schedule: Q07DX002 (ip), vehicle: saline) 66 % of control; (dose: 800.0 mg/kg/injection, schedule: Q07DX003 (ip), vehicle: saline) 38 % of control.
